Consider four molecules from ChEMBL document CHEMBL2074065, “Pravastatin, an HMG-CoA reductase inhibitor, is transported by rat organic anion transporting polypeptide, oatp2” (Pharm Res, 1999).

Series [1] has as its target T1, Solute carrier organic anion transporter family member 1A4 (Rattus norvegicus, UniProt O35913).
T1 sequence (O35913 whole entry): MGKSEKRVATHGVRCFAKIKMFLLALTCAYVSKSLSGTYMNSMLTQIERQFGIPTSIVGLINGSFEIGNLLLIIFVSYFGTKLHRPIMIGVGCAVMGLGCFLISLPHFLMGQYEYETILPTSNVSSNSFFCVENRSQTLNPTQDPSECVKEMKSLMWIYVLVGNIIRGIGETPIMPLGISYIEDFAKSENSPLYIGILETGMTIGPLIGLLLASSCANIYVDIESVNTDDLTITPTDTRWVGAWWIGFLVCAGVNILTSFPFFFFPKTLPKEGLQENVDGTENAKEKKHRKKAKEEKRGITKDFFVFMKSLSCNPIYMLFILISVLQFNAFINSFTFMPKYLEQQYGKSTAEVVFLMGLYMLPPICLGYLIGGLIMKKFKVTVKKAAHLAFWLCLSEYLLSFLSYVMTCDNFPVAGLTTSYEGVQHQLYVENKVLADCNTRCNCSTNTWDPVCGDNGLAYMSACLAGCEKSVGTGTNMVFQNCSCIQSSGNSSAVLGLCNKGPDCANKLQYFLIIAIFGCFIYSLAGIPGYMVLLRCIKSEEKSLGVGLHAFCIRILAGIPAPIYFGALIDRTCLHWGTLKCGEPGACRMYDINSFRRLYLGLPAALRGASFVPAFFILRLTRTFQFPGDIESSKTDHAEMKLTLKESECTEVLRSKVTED
As to the kind of experiment: TP_TRANSPORTER: inhibition of Pravastatin uptake (Pravastatin: 30 uM, E217betaG: 300 uM) in Xenopus laevis oocytes. It is filed as functional, cell-based. The conditions noted are these: oocyte.

Series [2] concerns the target T1, Solute carrier organic anion transporter family member 1A4. As to the kind of experiment: TP_TRANSPORTER: inhibition of Pravastatin uptake (Pravastatin: 30 uM, Simvastatin: 300 uM) in Xenopus laevis oocytes. It is filed as functional, cell-based. As to conditions: oocyte.
Series [3] has the same target. Briefly: TP_TRANSPORTER: inhibition of Pravastatin uptake (Pravastatin: 30 uM, BSP: 300 uM) in Xenopus laevis oocytes. Type of series: functional, cell-based. As to conditions: oocyte.
Substrate in series [4]: CC[C@H](C)C(=O)O[C@H]1C[C@H](O)C=C2C=C[C@H](C)[C@H](CC[C@@H](O)C[C@@H](O)CC(=O)O)[C@H]21
As to the kind of experiment: TP_TRANSPORTER: uptake in Xenopus laevis oocytes. It is filed as functional, cell-based, Oocyte.

Regarding `C[C@]12CC[C@@H]3c4ccc(O)cc4CC[C@H]3[C@@H]1CC[C@@H]2O[C@@H]1O[C@H](C(=O)O)[C@@H](O)[C@H](O)[C@H]1O` [ESTRADIOL 17B GLUCURONIDE], the Activity entry in series [1] was “inhibitor [+]”.
For the molecule `CCC(C)(C)C(=O)O[C@H]1C[C@@H](C)C=C2C=C[C@H](C)[C@H](CC[C@@H]3C[C@@H](O)CC(=O)O3)[C@H]21` [SIMVASTATIN], the Activity result in series [2] is “inhibitor [+]”.
With `O=C1OC(c2ccc(O)c(S(=O)(=O)[O-])c2)(c2ccc(O)c(S(=O)(=O)[O-])c2)c2c(Br)c(Br)c(Br)c(Br)c21.[Na+].[Na+]` [SULFOBROMOPHTHALEIN SODIUM], the Activity entry in series [3] was “inhibitor [+]”.

B1: Solute carrier organic anion transporter family member 1A4 (Rattus norvegicus) (protein)
chain: MGKSEKRVATHGVRCFAKIKMFLLALTCAYVSKSLSGTYMNSMLTQIERQFGIPTSIVGLINGSFEIGNLLLIIFVSYFGTKLHRPIMIGVGCAVMGLGCFLISLPHFLMGQYEYETILPTSNVSSNSFFCVENRSQTLNPTQDPSECVKEMKSLMWIYVLVGNIIRGIGETPIMPLGISYIEDFAKSENSPLYIGILETGMTIGPLIGLLLASSCANIYVDIESVNTDDLTITPTDTRWVGAWWIGFLVCAGVNILTSFPFFFFPKTLPKEGLQENVDGTENAKEKKHRKKAKEEKRGITKDFFVFMKSLSCNPIYMLFILISVLQFNAFINSFTFMPKYLEQQYGKSTAEVVFLMGLYMLPPICLGYLIGGLIMKKFKVTVKKAAHLAFWLCLSEYLLSFLSYVMTCDNFPVAGLTTSYEGVQHQLYVENKVLADCNTRCNCSTNTWDPVCGDNGLAYMSACLAGCEKSVGTGTNMVFQNCSCIQSSGNSSAVLGLCNKGPDCANKLQYFLIIAIFGCFIYSLAGIPGYMVLLRCIKSEEKSLGVGLHAFCIRILAGIPAPIYFGALIDRTCLHWGTLKCGEPGACRMYDINSFRRLYLGLPAALRGASFVPAFFILRLTRTFQFPGDIESSKTDHAEMKLTLKESECTEVLRSKVTED
Turning to B1, the Km in series [4] came out at 37.5 µM.
